Here are results for 3 compounds from US20020119107A1, “Method for protecting and restoring skin using selective MMP inhibitors” (priority 2000, published 2002).

Assay [1] deals with collagen-degrading enzymes from human skin (basal cell carcinoma conditioned medium). The protocol: (§1) Collagen-degrading enzyme preparations. A collagenolytic enzyme preparation from Clostridium histolyticum (Collagenase type I; Worthington Biochemical Corp, Freehold, N.J.) was used to produce fragmentation of the collagen. […] The bacterial enzyme preparation cleaves intact collagen at numerous sites to produce low molecular weight fragments. Collagenolytic activity was quantified by exposing 1 mg of rat tail (monomeric) collagen to varying concentrations of enzyme preparation for 5 hours at 37° C. Intact collagen exposed to buffer alone served as control. At the end of the incubation period, the control collagen and enzyme-treated collagen were resolved on SDS-PAGE and stained with Coomassie brilliant blue. Laser densitometry was used to quantify α1(I) and α2(I) bands in the intact and digested preparations. […] Human basal cell carcinoma tissue was used as a source of collagen-degrading enzymes from human skin. Fresh tumor specimens obtained at surgery were cut into 2-mm pieces, and 6-8 tissue pieces incubated for 72 hours in 0.5 ml of Ca^2+-supplemented MCDB-153. Incubation was at 37° C. and 5% CO2. At the end of the incubation period, the culture fluid was obtained and used as the enzyme source.

For another assay, the system named is bacterial collagenase. The following applies: gel exposed to bacterial collagenase plus 10 mM EDTA, EDTA then neutralized with Ca2+; FIG. 8B. On the procedure:
as §1

Assay [2] concerns collagenolytic enzyme preparation from Clostridium histolyticum (Collagenase type I). On the procedure:
as §1

Another assay addresses MMP-9 (Homo sapiens, UniProt P14780). The following applies: from Whittaker et al., Chem. Rev. 1999; cited from earlier work.
The next assay deals with T1, MMP-2 (Homo sapiens, UniProt P08253).
T1 sequence (P08253 110-660): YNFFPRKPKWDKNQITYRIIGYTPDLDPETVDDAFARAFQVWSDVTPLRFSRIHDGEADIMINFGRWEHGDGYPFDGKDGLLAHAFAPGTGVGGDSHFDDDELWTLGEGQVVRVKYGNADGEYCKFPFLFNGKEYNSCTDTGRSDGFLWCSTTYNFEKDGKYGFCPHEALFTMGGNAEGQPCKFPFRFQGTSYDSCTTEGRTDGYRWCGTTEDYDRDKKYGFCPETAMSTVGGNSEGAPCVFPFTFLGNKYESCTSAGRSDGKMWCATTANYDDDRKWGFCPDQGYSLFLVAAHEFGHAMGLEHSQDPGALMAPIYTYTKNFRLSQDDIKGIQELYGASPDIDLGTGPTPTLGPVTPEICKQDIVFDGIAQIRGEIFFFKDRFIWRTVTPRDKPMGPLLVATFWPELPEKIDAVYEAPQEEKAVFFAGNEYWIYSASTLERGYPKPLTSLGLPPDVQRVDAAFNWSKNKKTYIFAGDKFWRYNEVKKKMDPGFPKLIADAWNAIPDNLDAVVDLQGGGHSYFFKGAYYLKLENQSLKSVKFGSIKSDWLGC
The following applies: from Whittaker et al., Chem. Rev. 1999; cited from earlier work.

In a further assay the test system is human skin collagenase. Put plainly: Fibroblast contraction of collagen gels treated with human skin collagenase. The class given is cell-based. As to conditions: gels treated with human skin collagenase in the presence of 10 μg of aprotinin; FIG. 8B. On the procedure:
Preparation of polymerized collagen gels. […] During this period, the collagen formed a polymerized gel.
Collagen-degrading enzyme preparations. […] Intact collagen exposed to buffer alone served as control. […] Incubation was at 37° C. and 5% CO2.

Sequence of MMP-9 (P14780 94-707): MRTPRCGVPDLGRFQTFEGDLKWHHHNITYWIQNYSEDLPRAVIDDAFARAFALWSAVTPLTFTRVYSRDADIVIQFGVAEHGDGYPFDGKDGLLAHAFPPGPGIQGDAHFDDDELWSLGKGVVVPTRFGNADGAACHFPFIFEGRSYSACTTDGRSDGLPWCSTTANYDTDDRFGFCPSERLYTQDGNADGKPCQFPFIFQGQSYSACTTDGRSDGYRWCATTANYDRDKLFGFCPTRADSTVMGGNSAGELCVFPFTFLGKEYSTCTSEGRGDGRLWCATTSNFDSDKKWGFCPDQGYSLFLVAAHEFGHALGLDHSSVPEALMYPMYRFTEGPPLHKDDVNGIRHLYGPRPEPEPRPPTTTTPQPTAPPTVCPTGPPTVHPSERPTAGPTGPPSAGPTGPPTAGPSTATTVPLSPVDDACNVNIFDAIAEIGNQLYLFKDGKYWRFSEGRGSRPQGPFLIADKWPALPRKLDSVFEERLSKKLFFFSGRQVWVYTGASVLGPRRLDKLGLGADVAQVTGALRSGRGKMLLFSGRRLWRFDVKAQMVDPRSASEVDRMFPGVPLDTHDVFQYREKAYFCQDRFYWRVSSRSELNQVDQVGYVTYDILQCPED

As for `O=C(O)CN(CCN(CC(=O)O)CC(=O)O)CC(=O)O` [EDTA, ethylene diamine tetraacetic acid], in assay [1] (10 mM EDTA in the incubation buffer, gelatin, collagen and β-casein), the zymographic activities entry is “suppressed zymographic activities”. For the same compound, the collagen-degradation result in assay [1] (10 mM EDTA in the reaction mixture) is given as “suppressed collagen-degradation”. In addition, the collagen contraction entry in the assay on bacterial collagenase is “no collagen contraction”. In addition, the reactivity in zymography result in assay [2] (10 mM EDTA included in the overnight incubation buffer, gelatin and monomeric collagen) is “Reactivity was lost”. Moreover, in assay [2] (10 mM EDTA included in the reaction mixture, 1 mg rat tail monomeric collagen, 5 hours at 37° C.), the collagen breakdown entry is “no detectable collagen breakdown”.

For `CN1C(=O)N(C[C@H](C(=O)NO)[C@@H](CC2CCCC2)C(=O)N2CCCCC2)C(=O)C1(C)C` [compound 52], the values for the 50% inhibitory concentration (IC50) on MMP-9 and on MMP-2 were 59 nM and 154 nM, respectively.

Take aprotinin: the collagen contraction result in the assay on human skin collagenase is “not”.
